Laboratory results as given in US20250270170A1, “2,3-DIMETHOXY-5-METHYL-1,4-BENZOQUINONE ALKYL ALCOHOL DERIVATIVE AND USE THEREOF” (BEIJING ANJIANXI BIO-MEDICAL TECHNOLOGY CO., LTD., priority 2021, published 2025).

Legend:
NCI-H460 cells = test: Cell EDU proliferation assay, NCI-H460; assay type: cell-based, human; settings: 150 μM
Experimental: The compound of formula (I) at a concentration of 150 μM was co-cultured with the cells for 42 h, and then the FBS concentration in the FBS stimulation well was increased to 20%. The cells were cultured for another 6 h, and then detected using a Cell-Light EDUApollo567 kit.
(1) Cells in the logarithmic growth phase were taken, and inoculated into a 24-well culture plate at 1×10^4 cells per well. The culture plate was cultured in a 37° C. incubator under the condition of 5% CO2, and drug was added according to the assay design when the cells adhered to the wall.
(2) After the drug treatment, the Cell-Light EDU Apollo567 kit was taken out. The reagent A in the kit was diluted with 1640 complete culture medium at a ratio of 1000:1 to prepare a 50 μM EDU culture medium, 300 μl of which was configured to each well of the 24-well plate. The 24-well plate was taken out from the incubator, and the original culture medium was aspirated with a vacuum aspirator. […]
(12) 150 μl of PBS was added to each well to wash once, and the PBS was discarded. Then, 200 μl of PBS was added, and the plate was placed on an inverted fluorescence microscope to take pictures. 6 fields of view were taken for each well under a 200× field of view, and the proportion of EDU-positive cells among 100 cells was calculated. […]

[1] = Solubility of the compound in organic solvents; assay type: physicochemical; settings: organic solvents (DMSO and isopropyl alcohol 3:7 selected)
Experimental: The containers with DMSO and isopropyl alcohol were opened in a biological safety cabinet. A 15 ml centrifuge tube was taken, and 3 ml of DMSO and 7 ml of isopropyl alcohol were added to make a mixed solvent. The molecular weight of the compound of formula (I) is 678.22 g/mol. 40.69 mg of an original drug of the compound of formula (I) was weighed, and 4 ml of the mixed solvent was added. The mixture was mixed well by pipetting. […] The solution was diluted according to the required concentration when being used.

ICR mice = test: Example 5: acute toxicity, single gavage administration; assay type: in vivo
Experimental: (§1) Preparation of the administration formulation of the test sample: A mixture of the compound of formula (I) and ethanol/ethyl acetate (v/v, 1/3) with a ratio of 1:1.5 was dissolved by sonication at room temperature. 2.25 equivalents of compound of formula (I) of PVP were added, and the mixture was stirred vigorously at room temperature for 20 minutes. Then, 2 equivalents of the compound of formula (I) of lactose were added, and the mixture was stirred vigorously at room temperature for 20 minutes. The mixture was dried in an oven at 50° C. and then pulverized to give a yellow powder formulation of the compound of formula (I). Then, an appropriate amount of the formulation of compound of formula (I) was weighed, and an appropriate volume of 0.5% CMC-Na aqueous solution was added. The mixture was vortexed and sonicated to mix evenly (if necessary, shear emulsification may be performed), to give an administration formulation of the test sample. The administration formulation was prepared twice a week, and 3 or 4 days of dosage was prepared each time, which was divided and stored in a 0-8° C. refrigerator for later use. When the test sample was used, a final volume mark was marked on a container, and a required amount of the test sample was weighed (weighing weight of the test sample=theoretical dosage*conversion factor) into a clean and dry container. An appropriate amount of solvent was firstly added, and the mixture was stirred and mixed thoroughly, and sonicated if necessary. The solvent was further added to the final volume mark to dilute and mix evenly, to give a visually uniform formulation. […] The administration formulation of the test sample was stable within 24 hours when being stored airtightly at room temperature in dark, and was stable within 8 days when being stored airtightly at 2° C. to 8° C. in dark.
(§2) • Species: ICR mice • Grade: SPF grade
(§3) Number and gender of the animals being used: 40, half male and half female;
(§4) Body weight: The body weight of the female group was from 25.9 to 29.7 g; the body weight of the male group was from 27.7 to 30.8 g;
(§5) Age at the time of administration: 38 to 44 days (female), 31 to 44 days (male)
(§6) Route of Administration: Gavage Administration
(§7) Administration frequency: once/day
(§8) Administration period: 1 day
(§9) The dosage was calculated based on the body weight of the animals weighed on D1 after fasting (with water access) overnight. The feed was given approximately 2 hours after drug administration.
(§10) The administration formulation in each group was stirred at room temperature for at least 10 minutes, and suspended uniformly with visual inspection before the administration. The administration formulation was required to be continually stirred during the administration.
(§11) Observation indicators: observation of general physical signs, body weight, food intake, animal anatomy and histopathological examination were included.

[2] = as above; assay type: in vivo, ICR mice; settings: both sexes, mouse, in vivo, po, ICR mice, single gavage administration
Experimental: as §1, §2, §3, §4, §5, §6, §7, §8, §9, §10, §11

Structure (SMILES): COC1=C(OC)C(=O)C(CCCCCCCCCCOC(=O)Cc2c(C)n(C(=O)c3ccc(Cl)cc3)c3ccc(OC)cc23)=C(C)C1=O [compound of formula (I)]
- proportion of proliferating cells (EDU) (NCI-H460 cells; 48 hours, vs CTL (0 μM)): significantly reduced
- cell proliferation under FBS stimulation (EDU) (NCI-H460 cells; FBS increased to 20% for last 6 h): can inhibit the cell proliferation effect
- solubility in organic solvents [1]: easily soluble
- clinical observation (general physical signs) (ICR mice; 300 mg/kg/d single gavage): no obvious abnormal symptoms
- clinical observation (general physical signs) (ICR mice; 1000 mg/kg/d single gavage, animals other than the dead one): No obvious abnormal symptoms
- body weight of male animals (ICR mice; 3000 mg/kg/d single gavage, D3, vs vehicle control (P<0.05)): significant decrease
- clinical observation (general physical signs) (ICR mice; 3000 mg/kg/d single gavage, return to normal on D8): piloerection symptoms from D2 to D7
- food intake (ICR mice; each dosage group (300, 1000, 3000 mg/kg/d) vs vehicle control): basically consistent
- gross anatomy examination (ICR mice; each group, naked eye observation of organs and tissues): No obvious abnormalities
- LD50 at 1 day [2]: > 3000 mg/kg
- MTD at 1 day ([2]; read-out: maximum tolerated dose (MTD)): 300 mg/kg/day
